Where a name gives a salt, the structure may show the parent alone.
System: HeLa cells
Assay: Secondary assay: cell proliferation inhibition WST-1, HeLa
Format: cell-based
Conditions: Homo sapiens, 48 h
Description: (§1) Compounds with HDAC inhibition activity, as determined using the primary assay, were subsequently evaluated using secondary cell-based assays. The following cell lines were used:
HeLa—Human cervical adenocarcinoma cell line (ATCC ref. No. CCL-2).
(§2) Cells were cultured, exposed to candidate compounds, and incubated for a time, and the number of viable cells was then assessed using the Cell Proliferation Reagent WST-1 from Boehringer Mannheim (Cat. No. 1 644 807), described below.
(§3) Cells were plated in 96-well plates at 3-10×10^3 cells/well in 100 μL of culture medium. The following day, different concentrations of candidate compounds were added and the cells incubated at 37° C. for 48 h. Subsequently, 10 μL/well of WST-1 reagent was added and the cells reincubated for 1 hour. After the incubation time, absorbance was measured.
(§4) WST-1 is a tetrazolium salt which is cleaved to formazan dye by cellular enzymes. An expansion in the number of viable cells results in an increase in the overall activity of mitochondrial dehydrogenases in the sample. This augmentation in the enzyme activity leads to an increase in the amount of formazan dye formed, which directly correlates to the number of metabolically active cells in the culture. The formazan dye produced is quantified by a scanning multiwell spectrophotometer by measuring the absorbance of the dye solution at 450 nm wavelength (reference wavelength 690 nm).
(§5) Percent activity (% activity) in reducing the number of viable cells was calculated for each test compound as: % activity={(S^c−B)/(S°−B)}×100 wherein S^c denotes signal measured in the presence of the compound being tested, S° denotes signal measured in the absence of the compound being tested, and B denotes the background signal measured in blank wells containing medium only. […] IC50 values were calculated using the software package Prism 3.0 (GraphPad Software Inc., San Diego, Calif.), setting top value at 100 and bottom value at 0.

IC50 | Compound
3700 nM | O=C(/C=C/c1cnc2ccccc2c1)NO [PX118987, (E)-N-Hydroxy-3-(3-quinolinyl)-2-propenamide]
17800 nM | O=C(/C=C/c1cccc2ncccc12)NO [PX119088, (E)-N-Hydroxy-3-(5-quinolinyl)-2-propenamide]

More lines, now with the values behind:

Compound | IC50
O=C(/C=C/c1ccc2ncccc2c1)NO [PX119039, (E)-N-Hydroxy-3-(6-quinolinyl)-2-propenamide] | 14100 nM
O=C(/C=C/c1ccc2cccnc2c1)NO [PX119068, (E)-N-Hydroxy-3-(7-quinolinyl)-2-propenamide] | 6700 nM
O=C(CCc1ccc2cccc(O)c2n1)NO [PX119095, N-Hydroxy-3-(8-hydroxy-2-quinolinyl)propanamide] | 22300 nM
CC(/C=C/C(=O)NO)=C\[C@@H](C)C(=O)c1ccc(N(C)C)cc1 [TSA, trichostatin A] | 350 nM

System: JURKAT human T-cell line
Assay: Secondary assay: cell proliferation inhibition WST-1, Jurkat
Format: cell-based
Conditions: Homo sapiens; Jurkat cells, 48 h
Description: as §1
JURKAT—Human T-cell line (ATCC no. TIB-152).
as §2, §3, §4, §5

Compound | IC50
CC(/C=C/C(=O)NO)=C\[C@@H](C)C(=O)c1ccc(N(C)C)cc1 [TSA, trichostatin A] | 42 nM

Same assay, conditions: Jurkat cells, 48 h

Compound | IC50
Nc1ccccc1NC(=O)c1ccc(CNC(=O)OCc2cccnc2)cc1 [MS-275] | 365 nM
oxamflatin | 170 nM

System: not given
Assay: not given
Conditions: not given

melting point | Compound
200 to 202 °C (dec.) | O=C(/C=C/c1cnc2ccccc2n1)NO (as salt: sodium) [PX118840, (E)-3-(2-Quinoxalinyl)-N-hydroxy-2-propenamide sodium salt]
205 to 207 °C | O=C(/C=C/c1cnc2ccccc2c1)NO [PX118987, (E)-N-Hydroxy-3-(3-quinolinyl)-2-propenamide]
225 to 227 °C | COc1ccc2nc(C)ccc2c1/C=C/C(=O)NO [PX119038, (E)-N-Hydroxy-3-(6-methoxy-2-methyl-5-quinolinyl)-2-propenamide]
159 to 160 °C | O=C(/C=C/c1cccc2cccnc12)NO [PX119071, (E)-3-(8-Quinolinyl)-N-hydroxy-2-propenamide]
211 to 213 °C | O=C(/C=C/c1cccc2ncccc12)NO [PX119088, (E)-N-Hydroxy-3-(5-quinolinyl)-2-propenamide]
213 to 214 °C | O=C(CCc1nc2ccccc2[nH]c1=O)NO [PX119094, N-Hydroxy-3-(3-oxo-3,4-dihydro-2-quinoxalinyl)propanamide]
192 to 194 °C | Cc1ccc2nc(CCC(=O)NO)cc(C)c2c1 [PX119138, 3-(4,6-Dimethyl-2-quinolinyl)-N-hydroxypropanamide]

More lines, now with the values behind:

Compound | melting point
O=C(/C=C/c1ccc2cccnc2c1)NO [PX119068, (E)-N-Hydroxy-3-(7-quinolinyl)-2-propenamide] | 203 to 205 °C
O=C(CCc1ccc2cccc(O)c2n1)NO [PX119095, N-Hydroxy-3-(8-hydroxy-2-quinolinyl)propanamide] | 165 to 167 °C
O=C(/C=C/C=C/c1ccc2ccccc2n1)NO [PX119135, (2E,4E)-N-Hydroxy-5-(2-quinolinyl)-2,4-pentadienamide] | 160 to 162 °C
O=C(NO)c1ccc(OCc2ccc3ccccc3n2)cc1 [PX119141, N-Hydroxy-4-(2-quinolinylmethoxy)benzamide] | 202 to 204 °C

System: HDAC (HeLa cell extract)
Assay: Primary assay: deacetylase activity (HDAC inhibition), HeLa cell extract
Parameters: species or system human
Conditions: HeLa cell extract as HDAC source; read-out: Biochemical Assay Data HDAC Inhibition (IC50) HeLa
Source text: Briefly, this assay relies on the release of radioactive acetate from a radioactively labelled histone fragment by the action of HDAC enzyme. Test compounds, which inhibit HDAC, reduce the yield of radioactive acetate. Signal (e.g., scintillation counts) measured in the presence and absence of a test compound provide an indication of that compound's ability to inhibit HDAC activity. Decreased activity indicates increased inhibition by the test compound.
The histone fragment was an N-terminal sequence from histone H4, and it was labelled with radioactively labelled acetyl groups using tritiated acetylcoenzyme A (coA) in conjunction with an enzyme which is the histone acetyltransferase domain of the transcriptional coactivator p300. […] The acetylated peptide was then separated from free acetyl coA by size exclusion chromatography on Sephadex G-15 (Sigma G-15-120), using distilled H2O as the mobile phase.
After purification of the radiolabelled histone fragment, it was incubated with a source of HDAC (e.g., an extract of HeLa cells (a rich source of HDAC), recombinantly produced HDAC1 or HDAC2) and any released acetate was extracted into an organic phase and quantitatively determined using scintillation counting. By including a test compound with the source of HDAC, that compound's ability to inhibit the HDAC was determined.
Alternatively, the activity of the compounds as HDAC inhibitors was determined using a commercially available fluorescent assay kit: (Fluor de Lys™, BioMol Research Labs, Inc., Plymouth Meeting, USA).
Extensive comparative studies have shown that Primary Assay (1) and Primary Assay (2), discussed above, yield equivalent results. Primary Assay results reported herein are (a) exclusively from (1); (b) exclusively from (2); or (c) from both (1) and (2).
The HeLa cell extract was made from HeLa cells (ATCC Ref. No. CCL-2) by freeze-thawing three times in 60 mM TrisCl pH 8.0, 450 mM NaCl, 30% glycerol. Two cell volumes of extraction buffer were used, and particulate material was centrifuged out (20800 g, 4° C., 10 min). The supernatant extract having deacetylase activity was aliquoted and frozen for storage.
Percent activity (% activity) for each test compound was calculated as: % activity={(S^c−B)/(S°−B)}×100 wherein S^c denotes signal measured in the presence of enzyme and the compound being tested, S° denotes signal measured in the presence of enzyme but in the absence of the compound being tested, and B denotes the background signal measured in the absence of both enzyme and compound being tested.

IC50 | Compound
197 nM | O=C(/C=C/c1cnc2ccccc2c1)NO [PX118987, (E)-N-Hydroxy-3-(3-quinolinyl)-2-propenamide]
619 nM | Cc1ccc2nc(CCC(=O)NO)cc(C)c2c1 [PX119138, 3-(4,6-Dimethyl-2-quinolinyl)-N-hydroxypropanamide]

Further lines, the compound ahead of its results:

Compound | IC50
O=C(/C=C/c1ccc2ncccc2c1)NO [PX119039, (E)-N-Hydroxy-3-(6-quinolinyl)-2-propenamide] | 265 nM
O=C(/C=C/c1ccc2cccnc2c1)NO [PX119068, (E)-N-Hydroxy-3-(7-quinolinyl)-2-propenamide] | 111 nM
O=C(/C=C/C=C/c1ccc2ccccc2n1)NO [PX119135, (2E,4E)-N-Hydroxy-5-(2-quinolinyl)-2,4-pentadienamide] | 330 nM
O=C(NO)c1ccc(OCc2ccc3ccccc3n2)cc1 [PX119141, N-Hydroxy-4-(2-quinolinylmethoxy)benzamide] | 186 nM

System: K11 HPV E7 transformed human keratinocyte line
Assay: Secondary assay: cell proliferation inhibition WST-1, K11
Format: cell-based
Conditions: Homo sapiens, Keratinocyte; K11 cells, 48 h
Description: as §1
K11—HPV E7 transformed human keratinocyte line provided by Pidder Jansen-Duerr, Institut für Biomedizinische Alternsforschung, Innsbruck, Austria.
as §3, §4, §5

Compound | IC50
CC(/C=C/C(=O)NO)=C\[C@@H](C)C(=O)c1ccc(N(C)C)cc1 [TSA, trichostatin A] | 380 nM

Same assay, conditions: K11 cells, 48 h

Compound | IC50
Nc1ccccc1NC(=O)c1ccc(CNC(=O)OCc2cccnc2)cc1 [MS-275] | 9160 nM
